# What was measured:
# ob/ob mice [1] = test: serum glucose, triglycerides and T4 in ob/ob mice, drug mixed in control diet over 7 days; format: in vivo; details: 30 mg/kg per day in diet; for Glucose Day 0 / Triglycerides Day 0: day 0 (pre-treatment)
# ob/ob mice [2] = test: serum glucose, triglycerides and T4 in diabetic mice, oral gavage in corn oil daily for seven days; format: in vivo; details: for Glucose Day 0 / Triglycerides Day 0: day 0 (pre-treatment)
# RARγ = molecular target: T1, RARγ (Homo sapiens, UniProt P13631); test: chimeric receptor transactivation assay, RARγ; format: cell-based; details: read-out: RAR Trans. EC50 γ
# T1 sequence (P13631 185-419 limits assumed): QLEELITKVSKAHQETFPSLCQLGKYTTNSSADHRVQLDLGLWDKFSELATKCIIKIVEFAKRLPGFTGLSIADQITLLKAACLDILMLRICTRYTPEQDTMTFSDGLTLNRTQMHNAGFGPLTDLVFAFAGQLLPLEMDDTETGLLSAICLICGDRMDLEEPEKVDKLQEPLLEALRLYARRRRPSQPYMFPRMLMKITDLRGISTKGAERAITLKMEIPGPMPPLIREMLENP
# Excerpt: Specifically, one such assay is a chimeric receptor transactivation assay which tests for agonist-like activity in the R RAPE and RAR7 receptor subtypes, and which is based on work published by Feigner, P. L. and Holm, M (1989) Focus, 112 is described in detail in U.S. Pat. No. 5,455,265. The specification of U.S. Pat. No. 5,455,265 is hereby expressly incorporated by reference. A holoreceptor transactivation assay and a ligand binding assay which measure the antagonist/agonist like activity of the compounds of the invention, or their ability to bind to the several retinoid receptor subtypes, respectively, are described in published PCT Application No. WO WO93/11755 (particularly on pages 30-33 and 37-41) published on Jun. 24, 1993, the specification of which is also incorporated herein by reference. A detailed experimental procedure for holoreceptor transactivations has been described by Heyman et al. Cell 68, 397-406, (1992); Allegretto et al. J. Biol. Chem. 268, 26625-26633, and Mangelsdorf et al. The Retinoids: Biology, Chemistry and Medicine, pp 319-349, Raven Press Ltd., New York, which are expressly incorporated herein by reference. The results obtained in this assay are expressed in EC50 numbers, as they are also in the chimeric receptor transactivation assay. The results of the ligand binding assay are expressed in Ki numbers. […]
# Efficacy in a transactivation assay is expressed as a percentage of the maximum potency attained by the compound compared to a standard which, in this case, is the compound named (2E,4E,1′S,2′S)-3-methyl-5-[2′-methyl-2′-(5,5,8,8-tetramethyl-5,6,7,8-tetrahydro-naphthalen-2-yl)-cyclopropyl]-penta-2,4-dienoic acid. […]
# (§1) Generally speaking, in the tables disclosing the results of transactivation and binding assays the numbers in parentheses indicate efficacy as a percentage compared to the standard compound, (2E,4E,1′S,2′S)-3-methyl-5-[2′-methyl-2′-(5,5,8,8-tetramethyl-5,6,7,8-tetrahydro-naphthalen-2-yl)cyclopropyl]-penta-2,4-dienoic acid and the other numbers indicate the measured EC50 and K; in nanomolar concentration.
# RXRγ = molecular target: T2, RXRγ (UniProt P28705); test: ligand binding assay, RXRγ; details: for Kd: Table 9 (Formula F), read-out: RXR γ Kd
# T2 sequence (P28705 1-463): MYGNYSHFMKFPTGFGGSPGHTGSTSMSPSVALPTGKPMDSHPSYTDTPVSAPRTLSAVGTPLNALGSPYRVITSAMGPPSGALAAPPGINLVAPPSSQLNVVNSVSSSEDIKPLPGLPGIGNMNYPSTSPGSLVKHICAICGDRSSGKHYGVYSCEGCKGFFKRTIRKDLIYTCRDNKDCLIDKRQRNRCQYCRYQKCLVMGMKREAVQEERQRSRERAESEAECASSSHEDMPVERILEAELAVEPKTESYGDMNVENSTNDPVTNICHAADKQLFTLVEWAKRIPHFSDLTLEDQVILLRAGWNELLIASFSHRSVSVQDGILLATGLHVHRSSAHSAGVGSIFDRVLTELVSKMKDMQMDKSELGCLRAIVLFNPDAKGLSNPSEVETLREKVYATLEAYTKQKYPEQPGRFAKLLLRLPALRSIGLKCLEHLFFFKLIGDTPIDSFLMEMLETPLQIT
# Excerpt: Specifically, one such assay is a chimeric receptor transactivation assay which tests for agonist-like activity in the R RAPE and RAR7 receptor subtypes, and which is based on work published by Feigner, P. L. and Holm, M (1989) Focus, 112 is described in detail in U.S. Pat. No. 5,455,265. The specification of U.S. Pat. No. 5,455,265 is hereby expressly incorporated by reference. A holoreceptor transactivation assay and a ligand binding assay which measure the antagonist/agonist like activity of the compounds of the invention, or their ability to bind to the several retinoid receptor subtypes, respectively, are described in published PCT Application No. WO WO93/11755 (particularly on pages 30-33 and 37-41) published on Jun. 24, 1993, the specification of which is also incorporated herein by reference. A detailed experimental procedure for holoreceptor transactivations has been described by Heyman et al. Cell 68, 397-406, (1992); Allegretto et al. J. Biol. Chem. 268, 26625-26633, and Mangelsdorf et al. The Retinoids: Biology, Chemistry and Medicine, pp 319-349, Raven Press Ltd., New York, which are expressly incorporated herein by reference. The results obtained in this assay are expressed in EC50 numbers, as they are also in the chimeric receptor transactivation assay. The results of the ligand binding assay are expressed in Ki numbers. (See Cheng et al. Biochemical Pharmacology Vol. 22 pp 3099-3108, expressly incorporated herein by reference.)
# as §1
# [3] = 50 mg/kg, corn oil vehicle (Table 7)
# [4] = 80 mg/kg, corn oil vehicle (second Table 9)
compound,measurement,setting,value
"CCOc1c(\C(C)=C/C=C/C(C)=C/C(=O)O)cc2c(c1Cl)OC(C)(C)C=C2C(C)C [Compound 50, 7-(8-Chloro-4-isopropyl-7-ethoxy-2,2-dimethyl-2H-chromen-6-yl)-3-methyl-octa-2E,4E,6Z-trienoic acid]","Glucose Day 3, 3 h",ob/ob mice [1],209 mg/dL
same,"Glucose Day 6, 3 h",ob/ob mice [1],237 mg/dL
same,T4 Day 7,ob/ob mice [1],4.5 µg/dL
same,"Triglycerides Day 3, 3 h",ob/ob mice [1],90 ± 33 mg/dL
same,Glucose Day 0,ob/ob mice [1],288 mg/dL
same,Triglycerides Day 0,ob/ob mice [1],122 mg/dL
"CCOc1c(\C(C)=C(F)/C=C/C(C)=C/C(=O)O)cc2c(c1Cl)OC(C)(C)C=C2C(C)C [Compound 172, 7-(8-Chloro-4-isopropyl-7-ethoxy-2,2-dimethyl-2H-chromen-6-yl)-6-fluoro-3-methyl-octa-2E,4E,6E-trienoic acid]","Glucose Day 3, 3 h",ob/ob mice [1],193 mg/dL
same,"Glucose Day 6, 3 h",ob/ob mice [1],206 mg/dL
same,T4 Day 7,ob/ob mice [1],4.5 µg/dL
same,"Triglycerides Day 3, 3 h",ob/ob mice [1],68 ± 22 mg/dL
same,Glucose Day 0,ob/ob mice [1],292 mg/dL
same,Triglycerides Day 0,ob/ob mice [1],107 mg/dL
"CCOc1cc2c(cc1\C(=C/C=C/C(C)=C/C(=O)O)CC)C(C)=CCC2(C)C [Compound A-16, 7-(3-Ethoxy-5,5,8-trimethyl-5,6-dihydronaphthalen-2-yl)-3-methyl-nona-2E,4E,6Z-trienoic acid]","Glucose Day 3, 3 h",ob/ob mice [2]; [3],297 mg/dL
same,"Glucose Day 6, 3 h",ob/ob mice [2]; [3],267 mg/dL
same,T4 Day 7,ob/ob mice [2]; [3],4.2 µg/dL
same,"Triglycerides Day 3, 3 h",ob/ob mice [2]; [3],121 mg/dL
same,Glucose Day 0,ob/ob mice [2]; [3],443 mg/dL
same,Triglycerides Day 0,ob/ob mice [2]; [3],160 mg/dL
"CCOc1cc2c(cc1\C(C)=C(F)/C=C/C(C)=C/C(=O)O)C=CCC2(C)C [Compound A-76, (2E,4E,6E)-7-(3-Ethoxy-5,5-dimethyl-5,6-dihydro-naphthalen-2-yl)-6-fluoro-3-methyl-octa-2,4.6-trienoic acid]",EC50,RARγ,> 10000 nM
CCOc1cc2c(cc1\C(CC)=C(F)/C=C/C(C)=C/C(=O)O)C=CCC2(C)C [Compound A-77],EC50,RARγ,2 nM
"CCOc1cc2c(cc1\C(C)=C(F)/C=C/C(C)=C/C(=O)O)C(C(C)C)=CCC2(C)C [Compound A-79, (2E,4E,6E)-6-Fluoro-3-(4,4-dimethylethoxy-1-isopropyl-3,4-dihydronaphthalen-7-yl)-3-methyl-2.4,6-octa-trienoic acid]",Ki,RXRγ; read-out: RXR Bind Ki γ,88 nM
"CCOc1c(\C(CC)=C(F)/C=C/C(C)=C/C(=O)O)cc2c(c1Br)C(C)(C)CC=C2C(C)C [Compound A-170, (2E,4E,6E)-7-(4-Bromo-3-ethoxy-8-isopropyl-5,5-dimethyl-5,6-dihydro-naphthalen-2-yl)-6-fluoro-3-methyl-nona-2,4,6-trienoic acid]","Glucose Day 3, 3 h",ob/ob mice [2]; [4],294 mg/dL
same,"Glucose Day 6, 3 h",ob/ob mice [2]; [4],255 mg/dL
same,T4 Day 7,ob/ob mice [2]; [4],2.7 µg/dL
same,"Triglycerides Day 3, 3 h",ob/ob mice [2]; [4],195 mg/dL
same,Glucose Day 0,ob/ob mice [2]; [4],423 mg/dL
same,Triglycerides Day 0,ob/ob mice [2]; [4],168 mg/dL
same,Kd,RXRγ,29 nM
"CCOc1c(\C(=C(F)/C=C/C(C)=C/C(=O)O)C(C)C)cc2c(c1Br)C(C)(C)CC=C2C(C)C [Compound A-171, (2E,4E,6E)-7-(4-Bromo-3-ethoxy-8-isopropyl-5,5-dimethyl-5,6-dihydro-naphthalen-2-yl)-6-fluoro-3.8-dimethyl-nona-2.4,6-trienoic acid]",Kd,RXRγ,112 nM
"CC(/C=C/C(F)=C(/C)c1cc2c(c(Br)c1OC(C)C)C(C)(C)CC=C2C(C)C)=C\C(=O)O [Compound A-172, (2E,4E,6E)-7-(4-Bromo-3-isopropoxy-8-isopropyl-5,5-dimethyl-5,6-dihydro-naphthalen-2-yl)-6-fluoro-3-methyl-octa-2,4,6-trienoic acid]",Kd,RXRγ,221 nM
"CCOc1c(\C(C)=C(F)/C=C/C(C)=C/C(=O)O)cc2c(c1Br)C(C)(C)CC=C2C(C)(C)C [Compound A-174, (2E,4E,6E)-7-(4-Bromo-8-tert-butyl-3-ethoxy-5,5-dimethyl-5,6-dihydro-naphthalen-2-yl)-6-fluoro-3-methyl-octa-2,4,6-trienoic acid]",Kd,RXRγ,34 nM
"CCOc1c(\C(CC)=C(F)/C=C/C(C)=C/C(=O)O)cc2c(c1Br)C(C)(C)CC=C2C(C)CC (stereo not shown) [Compound A-176, (2E,4E,6E)-7-(4-Bromo-8-sec-butyl-3-ethoxy-5,5-methyl-5,6-dihydro-naphthalen-2-yl)-6-fluoro-3-methyl-nona-2,4,6-trienoic acid]",Kd,RXRγ,122 nM
"CCOc1c(\C(CC)=C(F)/C=C/C(C)=C/C(=O)O)cc2c(c1Cl)C(C)(C)CC=C2C(C)C [Compound A-178, (2E,4E,6E)-7-(4-Chloro-3-ethoxy-8-isopropyl-5,5-dimethyl-5,6-dihydronaphthalen-2-yl)-6-fluoro-3-methyl-nona-2,4,6-trienoic acid]",EC50,RARγ,> 10000 nM
same,Kd,RXRγ,61 nM
